{"source": "the SangsterLogP compilation", "data": [{"compound": "Clc1ccc(C(COCc2ccc(OCc3ccccc3)cc2)Cn2cncn2)c(Cl)c1", "note": "(stereo not drawn)", "values": [{"measurement": "logP", "result": 4.46}]}, {"compound": "C=CCOCC(Cn1cncn1)c1ccc(Cl)cc1Cl", "note": "(stereo not drawn)", "values": [{"measurement": "logP", "result": 3.49}]}, {"compound": "Clc1ccc(C(COCc2ccccc2)Cn2cncn2)c(Cl)c1", "note": "(stereo not drawn)", "values": [{"measurement": "logP", "result": 3.83}]}, {"compound": "Clc1ccc(COCC(Cn2cncn2)c2ccc(Cl)cc2Cl)c(Cl)c1", "note": "(stereo not drawn)", "values": [{"measurement": "logP", "result": 4.71}]}, {"compound": "CC(C)=CCOCC(Cn1cncn1)c1ccc(Cl)cc1Cl", "note": "(stereo not drawn)", "values": [{"measurement": "logP", "result": 3.91}]}, {"compound": "CC(C)(C)c1ccc(COCC(Cn2cncn2)c2ccc(Cl)cc2Cl)cc1", "note": "(stereo not drawn)", "values": [{"measurement": "logP", "result": 4.84}]}, {"compound": "Clc1ccc(C(COCc2ccc3ccccc3c2)Cn2cncn2)c(Cl)c1", "note": "(stereo not drawn)", "values": [{"measurement": "logP", "result": 4.48}]}, {"compound": "C=C(Cl)COCC(Cn1cncn1)c1ccc(Cl)cc1Cl", "note": "(stereo not drawn)", "values": [{"measurement": "logP", "result": 3.7}]}, {"compound": "O=[N+]([O-])c1ccc(COCC(Cn2cncn2)c2ccc(Cl)cc2Cl)cc1", "note": "(stereo not drawn)", "values": [{"measurement": "logP", "result": 3.72}]}, {"compound": "C=C(C)COCC(Cn1cncn1)c1ccc(Cl)cc1Cl", "note": "(stereo not drawn)", "values": [{"measurement": "logP", "result": 3.72}]}, {"compound": "Clc1ccc(C(COCC=Cc2ccccc2)Cn2cncn2)c(Cl)c1", "note": "(stereo not drawn)", "values": [{"measurement": "logP", "result": 4.21}]}, {"compound": "Clc1ccc(C(COCc2ccc(-c3ccccc3)cc2)Cn2cncn2)c(Cl)c1", "note": "(stereo not drawn)", "values": [{"measurement": "logP", "result": 4.29}]}, {"compound": "COc1cccc(COCC(Cn2cncn2)c2ccc(Cl)cc2Cl)c1", "note": "(stereo not drawn)", "values": [{"measurement": "logP", "result": 3.85}]}, {"compound": "Clc1ccc(C(COCCCc2ccccc2)Cn2cncn2)c(Cl)c1", "note": "(stereo not drawn)", "values": [{"measurement": "logP", "result": 4.77}]}, {"compound": "N#CCCOCC(Cn1cncn1)c1ccc(Cl)cc1Cl", "note": "(stereo not drawn)", "values": [{"measurement": "logP", "result": 0.36}]}, {"compound": "Clc1ccc(C(COCc2cccc(Oc3ccccc3)c2)Cn2cncn2)c(Cl)c1", "note": "(stereo not drawn)", "values": [{"measurement": "logP", "result": 4.58}]}, {"compound": "Clc1ccc(C(COCc2cccs2)Cn2cncn2)c(Cl)c1", "note": "(stereo not drawn)", "values": [{"measurement": "logP", "result": 4.42}]}, {"compound": "C#CCOCC(Cn1cncn1)c1ccc(Cl)cc1Cl", "note": "(stereo not drawn)", "values": [{"measurement": "logP", "result": 2.93}]}]}
